This assay concerns RSV-infected cells, CPE inhibition (cell viability). In words: inhibition of RSV-induced host cell death – synthesized compounds, set 6, dose response (AID 504526).

Values joined by “and” are separate entries in the source; they are usually repeats but may differ in a detail not shown here. Identical values can stand only once. Active and inactive are the calls of the source. How the calls were made is not given here. Some results are limits rather than exact numbers.

Regarding `Cc1ccccc1CNC(=O)C1CCN(S(=O)(=O)c2cccc3nonc23)CC1`, the IC50 – broadly, the concentration that gives 50% inhibition – is > 50 µM (inactive). `O=C(O)C1CC=CCC1C(=O)Nc1ccc(S(=O)(=O)N2CCCc3ccccc32)cc1` (centres undefined): the half-maximal inhibitory concentration (IC50) was 31.4 µM. On to `Cc1ccc(C(F)(F)F)cc1NC(=O)[C@@H]1CCCN1S(=O)(=O)c1cccc2cccnc12`, for which the IC50 is > 50 µM (inactive). In the case of `COc1ccccc1CNC(=O)C1CCN(S(=O)(=O)c2ccccc2)CC1` it was > 50 µM (inactive).

For `COc1ccccc1CNC(=O)C1CCN(S(=O)(=O)c2cccc3scnc23)CC1`, the IC50 is > 50 µM (inactive).

For `COc1ccccc1CNC(=O)C1CCN(S(=O)(=O)c2cccc3nonc23)CC1`, the IC50 is 3.6 µM and 4.7 µM. Consider `Cc1ccc(Cl)c(NC(=O)[C@@H]2CCCN2S(=O)(=O)c2cccc3cccnc23)c1`, for which the IC50 is > 50 µM (inactive). The same measure for `COc1ccccc1NCC(=O)Nc1cc(S(=O)(=O)N2CCOCC2)ccc1N1CCOCC1`: > 50 µM (inactive); for `Cc1ccc(C)c(NC(=O)[C@@H]2CCCN2S(=O)(=O)c2cccc3cccnc23)c1`: 5.1 µM; for `COCCCNC(=O)c1ccc(Cn2c(=O)c3ccccc3n(Cc3ccccc3)c2=O)cc1`: > 50 µM (inactive). In the case of `Cc1ccc(Cl)cc1NC(=O)[C@@H]1CCCN1S(=O)(=O)c1cccc2cccnc12` it was 0.22 µM; in that of `Cc1cccc(C)c1NC(=O)[C@@H]1CCCN1S(=O)(=O)c1cccc2cccnc12`, 34.6 µM; in that of `COc1ccccc1CNC(=O)C1CCN(S(=O)(=O)c2cccc3cccnc23)CC1`, > 50 µM (inactive). The same measure for `Cc1ccc(C(C)(C)C)cc1NC(=O)[C@@H]1CCCN1S(=O)(=O)c1cccc2cccnc12`: > 50 µM (inactive). In the case of `COc1ccc(C)cc1NC(=O)[C@@H]1CCCN1S(=O)(=O)c1cccc2cccnc12`, the IC50 is > 50 µM (inactive). In the case of `COc1ccccc1CNC(=O)C1CCN(Cc2cccc3nonc23)CC1` it was > 50 µM (inactive); in that of `COCCCNC(=O)c1ccc(Cn2c(=O)c3ccc(Cl)cc3n(Cc3ccc(C)cc3)c2=O)cc1`, > 50 µM (inactive); in that of `O=C(NCc1ccccc1Cl)C1CCN(S(=O)(=O)c2cccc3nonc23)CC1`, 6.9 µM. In the case of `COCCNC(=O)c1ccc(Cn2c(=O)c3ccccc3n(Cc3ccc(C)cc3)c2=O)cc1` it was 2.32 µM; in that of `COc1cccc(CNC(=O)C2CCN(S(=O)(=O)c3cccc4nonc34)CC2)c1`, > 50 µM (inactive); in that of `Cc1ccc(C(C)C)cc1NC(=O)[C@@H]1CCCN1S(=O)(=O)c1cccc2cccnc12`, > 50 µM (inactive). Consider `COc1ccc(CNC(=O)C2CCN(S(=O)(=O)c3cccc4nonc34)CC2)cc1`, for which the IC50 is > 50 µM (inactive). In the case of `COc1ccccc1CNC(=O)[C@@H]1CCCN1S(=O)(=O)c1cccc2cccnc12` it was 18.8 µM; in that of `COc1ccc(C)c(NC(=O)[C@@H]2CCCN2S(=O)(=O)c2cccc3cccnc23)c1`, 3.51 µM.
